Test results as given in patent publication US8143254B2, “Methods for modulating ion channels” (Cornell Research Foundation, Inc., priority 2005, dated 2012).

Test system: Kv3.4
Experiment: TEVC of X. laevis oocytes expressing Kv3.4
Type: cell-based
Conditions: for mean inhibition at 0 mV relative to +50 mV: Kv3.4, voltage dependence of block
Excerpt: Kv2.1 mutants were constructed using the QuickChange Multi Site-Directed Mutagenesis Kit (Stratagene, La Jolla, Calif.). […] For oocyte expression, Kv3.4 was in pBF1, Kv4.2 was in pRAT. cRNA transcripts were produced from SacII-linearized (Kv2.1), Mlullinearized (Kv3.4) and Not1-linearized (Kv4.2) DNA templates using the T3 (Kv2.1), SP6 (Kv3.4) and T7 (Kv4.2) mMessage mMachine kits (Ambion, Austin, Tex.). cRNA was quantified by spectrophotometry and its size integrity verified by gel electophoresis. Defolliculated stage V and VI Xenopus laevis oocytes (purchased from Nasco, Grand Island, N.Y.) were injected with 5 ng of cRNA encoding Kv2.1, Kv3.4 or Kv4.2. Chinese Hamster Ovary (CHO) cells were transfected with 0.25 μg Kv2.1 cDNA, 2 μg blank plasmid and 2 μg Green fluorescent Protein in pBOB using Supetfect transfection reagent (Qiagen) 24 hours before whole-cell voltage clamp studies.
Oocytes were bathed in a small-volume Warner oocyte bath and viewed with a Fisher dissection microscope. Bath solution for whole-cell oocyte recordings was (in mM): 96 NaCl, 4 KCl, 0.7 MgCl2, 1 CaCl2, 10 HEPES (pH 7.4); whole-cell oocyte TEVC pipettes were of 0.2-2 M resistance when filled with 3 M KCl. Experiments were performed 24-48 hours after cRNA injection. For assessment of current-voltage relationships in the absence or presence of dabco derivatives, oocytes were held at −80 mV, stepped for 2 seconds at voltages between −80 mV and +60 mV in 20 mV steps (Kv2.1) or between −80 and +50 mV in 10 mV steps (Kv3.4), then held for 500 ms at −40 mV before returning to the holding potential. For assessment of block during wash-in of dabco derivatives at a single voltage, oocytes were held at −80 mV, and repetitively stepped to 0 mV for 2 s with an interpulse interval of 10 s or 60 s as indicated. A range of concentrations of dabco or dabco derivatives were washed in via the bath solution during repetitive single-voltage pulses (after an initial period of 5 pulses with control solution to ensure current stabilization) until equilibrium block was achieved, to establish dose-responses. […] Washout was performed after the highest concentration of blocker was washed in. In cases where washout was achieved, only those recordings in which current returned to within 10% of original current level were used for construction of dose-response curves. […] As controls for this protection analysis, JC638.2a or MTSET were washed in alone until equilibrium block, then washed out.
Data analysis: Current-voltage relationships were obtained by measuring peak current during depolarizing pulses. Inhibition constants for DABCO blockers were calculated after generating a dose response curve by fitting with a logistic dose-response function y=A2+[A1−A2/1+(x/x0)^p], where A1 is the maximum response plateau, A2 is the minimum response plateau, x is drug concentrator, x0 is the IC50, and p the Hill slope. Data analysis was performed using […] 9 (Axon Instruments, Foster City, Calif.) and tabulated in Excel 5.0. Graphs were generated using Origin 6.1. Data are expressed as mean±SEM, with n specifying the number of independent experiments. Statistical significance was assessed by one-way ANOVA with p<0.05 being indicative of significance.

Row | Structure (SMILES) | inhibition of Kv3.4 (50 μM) | inhibition of Kv3.4 (250 μM) | mean inhibition at 0 mV relative to +50 mV | inhibition of Kv3.4 (1 μM) | inhibition of Kv3.4 (5 mM) | sensitivity of Kv3.4 channels to compound relative to externally-applied TEA (externally applied)
1 | CCCCCCCCCCCC[N+]12CCN(CC1)CC2 [JE188, 1-aza-4-azonia-4-dodecylbicyclo[2.2.2]octane] | significantly inhibited | almost complete inhibition | 2 fold |  |  | 
2 | CCCCCCCCCCCCCCCC[N+]12CCN(CC1)CC2 [TA279, 1-aza-4-azonia-4-hexadecylbicyclo[2.2.2]octane] |  |  | 1.5 fold | inhibiting | almost complete inhibition | 500 fold
